Laboratory results from patent US10597388B2, “Pyridazinone herbicides” (FMC CORPORATION, priority 2014, dated 2020).

Experiments:
Format in all cases: in vivo
[1] = test system: ryegrass, Italian (Italian ryegrass, Lolium multiflorum); assay: Test C greenhouse herbicide test, pre- and postemergence
Method in brief: (§1)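 Percent-control ratings (0 none, 100 complete) came from visual comparison with controls held alongside in the greenhouse for 13–15 d. Treatments covered soil application at sowing and foliar application to young plants 2–18 cm tall.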

[2] = test system: galium (catchweed bedstraw, Galium aparine); assay: as above
Method in brief: as §1

soybean (Glycine max) = assay: as above
Method in brief: as §1

corn (Zea mays) = assay: as above
Method in brief: as §1

[3] = test system: foxtail, giant (giant foxtail, Setaria faberii); assay: as above
Method in brief: as §1

[4] = test system: barnyardgrass (Echinochloa crus-galli); assay: as above
Method in brief: as §1

[5] = test system: wheat (winter wheat, Triticum aestivum); assay: as above
Method in brief: as §1

[6] = test system: blackgrass (Alopecurus myosuroides); assay: as above
Method in brief: as §1

[7] = test system: johnsongrass (Sorghum halepense); assay: as above
Method in brief: as §1

[8] = test system: nutsedge, yellow (yellow nutsedge, Cyperus esculentus); assay: as above
Method in brief: as §1

[9] = test system: velvetleaf (Abutilon theophrasti); assay: as above
Method in brief: as §1

[10] = test system: crabgrass, large (large crabgrass, Digitaria sanguinalis); assay: as above
Method in brief: as §1

[11] = test system: waterhemp_RES2 (ALS & HPPD resistant common waterhemp, Amaranthus rudis); assay: Test E greenhouse herbicide test, postemergence
Method in brief: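 Postemergence spray of formulated test chemicals onto resistant waterhemp at 1- to 4-leaf stage (2–18 cm tall), grown in peat/vermiculite potting medium. Kept in greenhouse 14 to 21 d, then visually rated against untreated controls on a 0–100 scale (0 no effect, 100 complete control).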

[12] = Postemergence, 31 g ai/ha, scale 0 to 100 (0 no effect, 100 complete control)
[13] = Postemergence, 125 g ai/ha, scale 0 to 100, 0 is no effect, 100 is complete control
[14] = Postemergence, 250 g ai/ha, scale 0 to 100, 0 no effect, 100 complete control, 13 to 15 d
[15] = Preemergence, 31 g ai/ha, scale 0 to 100, 0 is no effect, 100 is complete control
[16] = Preemergence, 62 g ai/ha, scale 0 to 100, 0 is no effect, 100 is complete control
[17] = Preemergence, 125 g ai/ha, scale 0 to 100, 0 is no effect, 100 is complete control
[18] = Preemergence, 250 g ai/ha, scale 0 to 100, 0 no effect, 100 complete control
[19] = postemergence, 62 g ai/ha, scale 0 to 100, 0 no effect, 100 complete control
[20] = 31 g ai/ha, visual, scale 0 no effect to 100 complete control
[21] = 125 g ai/ha, scale 0 to 100 (0 no effect, 100 complete control)
[22] = Postemergence, 62 g ai/ha, 0 to 100 scale (0 no effect, 100 complete control)

CCCC(=O)Oc1c(C)nn(C)c(=O)c1-c1c(C)sc2ccc(C)cc12 [Compound 105]
Plant response rating, Ryegrass, Italian [1, 12]: 85 | Plant response rating, Ryegrass, Italian [1, 13]: 90 | Plant response rating, Ryegrass, Italian [1, 14]: 80 | Plant response rating, Ryegrass, Italian [1, 15]: 40 | Plant response rating, Ryegrass, Italian [1, 16]: 90 | Plant response rating, Ryegrass, Italian [1, 17]: 90 | Ryegrass, Italian plant response rating [1, 18]: 95 | Plant response rating, Galium [2, 12]: 95 | Plant response rating, Galium [2, 13]: 95 | Plant response rating, Galium [2, 14]: 100 | Plant response rating, Galium [2, 15]: 85 | Plant response rating, Galium [2, 16]: 90 | Plant response rating, Galium [2, 17]: 95 | Galium plant response rating [2, 18]: 98 | Plant response rating, Soybean (soybean (Glycine max); [12]): 5 | Plant response rating, Soybean (soybean (Glycine max); [13]): 10 | Plant response rating, Soybean (soybean (Glycine max); [14]): 40 | Plant response rating, Soybean (soybean (Glycine max); [15]): 0 | Plant response rating, Soybean (soybean (Glycine max); [16]): 0 | Plant response rating, Soybean (soybean (Glycine max); [17]): 0 | Soybean plant response rating (soybean (Glycine max); [18]): 0 | Plant response rating, Corn (corn (Zea mays); [12]): 10 | Plant response rating, Corn (corn (Zea mays); [13]): 30 | Plant response rating, Corn (corn (Zea mays); [14]): 30 | Plant response rating, Corn (corn (Zea mays); [15]): 0 | Plant response rating, Corn (corn (Zea mays); [16]): 0 | Plant response rating, Corn (corn (Zea mays); [17]): 5 | Corn plant response rating (corn (Zea mays); [18]): 25 | Corn plant response rating (corn (Zea mays); [19]): 15 | Plant response rating, Foxtail, Giant [3, 12]: 40 | Plant response rating, Foxtail, Giant [3, 13]: 75 | Plant response rating, Foxtail, Giant [3, 14]: 85 | Plant response rating, Foxtail, Giant [3, 15]: 60 | Plant response rating, Foxtail, Giant [3, 16]: 80 | Plant response rating, Foxtail, Giant [3, 17]: 90 | Foxtail, Giant plant response rating [3, 18]: 100 | Plant response rating, Barnyardgrass [4, 12]: 10 | Plant response rating, Barnyardgrass [4, 13]: 25 | Plant response rating, Barnyardgrass [4, 14]: 20 | Plant response rating, Barnyardgrass [4, 15]: 0 | Plant response rating, Barnyardgrass [4, 16]: 30 | Plant response rating, Barnyardgrass [4, 17]: 60 | Barnyardgrass plant response rating [4, 18]: 90 | Barnyardgrass plant response rating [4, 19]: 25 | Plant response rating, Wheat [5, 12]: 0 | Plant response rating, Wheat [5, 13]: 5 | Plant response rating, Wheat [5, 14]: 5 | Plant response rating, Wheat [5, 15]: 0 | Plant response rating, Wheat [5, 16]: 10 | Plant response rating, Wheat [5, 17]: 10 | Wheat plant response rating [5, 18]: 5 | Plant response rating, Blackgrass [6, 12]: 15 | Plant response rating, Blackgrass [6, 13]: 50 | Plant response rating, Blackgrass [6, 14]: 60 | Plant response rating, Blackgrass [6, 15]: 20 | Plant response rating, Blackgrass [6, 16]: 50 | Plant response rating, Blackgrass [6, 17]: 55 | Blackgrass plant response rating [6, 18]: 90 | Blackgrass plant response rating [6, 19]: 40 | Plant response rating, Johnsongrass [7, 12]: 5 | Plant response rating, Johnsongrass [7, 13]: 0 | Plant response rating, Johnsongrass [7, 14]: 0 | Plant response rating, Johnsongrass [7, 15]: 10 | Plant response rating, Johnsongrass [7, 16]: 20 | Plant response rating, Johnsongrass [7, 17]: 20 | Johnsongrass plant response rating [7, 18]: 60 | Plant response rating, Nutsedge, Yellow [8, 12]: 55 | Plant response rating, Nutsedge, Yellow [8, 13]: 75 | Plant response rating, Nutsedge, Yellow [8, 14]: 90 | Plant response rating, Nutsedge, Yellow [8, 15]: 40 | Plant response rating, Nutsedge, Yellow [8, 16]: 45 | Plant response rating, Nutsedge, Yellow [8, 17]: 40 | Nutsedge, Yellow plant response rating [8, 18]: 85 | Plant response rating, Velvetleaf [9, 12]: 75 | Plant response rating, Velvetleaf [9, 13]: 90 | Plant response rating, Velvetleaf [9, 14]: 100 | Plant response rating, Velvetleaf [9, 15]: 60 | Plant response rating, Velvetleaf [9, 16]: 85 | Plant response rating, Velvetleaf [9, 17]: 90 | Velvetleaf plant response rating [9, 18]: 95 | Plant response rating, Crabgrass, Large [10, 12]: 20 | Plant response rating, Crabgrass, Large [10, 13]: 20 | Plant response rating, Crabgrass, Large [10, 14]: 30 | Plant response rating, Crabgrass, Large [10, 15]: 20 | Plant response rating, Crabgrass, Large [10, 16]: 50 | Plant response rating, Crabgrass, Large [10, 17]: 75 | Crabgrass, Large plant response rating [10, 18]: 80 | Crabgrass, Large plant response rating [10, 19]: 30 | Plant response rating, Waterhemp_RES2 ([11]; 16 g ai/ha, visual, scale 0 no effect to 100 complete control): 40 | Plant response rating, Waterhemp_RES2 [11, 20]: 50 | Plant response rating, Waterhemp_RES2 [11, 21]: 70

Cc1nn(C)c(=O)c(-c2cccc3ccc(Br)cc23)c1O [Compound 126]
Plant response rating, Ryegrass, Italian [1, 12]: 80 | Ryegrass, Italian plant response rating [1, 22]: 85 | Plant response rating, Ryegrass, Italian [1, 13]: 90 | Plant response rating, Ryegrass, Italian [1, 14]: 90 | Plant response rating, Galium [2, 12]: 90 | Galium plant response rating [2, 22]: 95 | Plant response rating, Galium [2, 13]: 98 | Plant response rating, Galium [2, 14]: 98 | Plant response rating, Soybean (soybean (Glycine max); [12]): 5 | Soybean plant response rating (soybean (Glycine max); [22]): 10 | Plant response rating, Soybean (soybean (Glycine max); [13]): 20 | Plant response rating, Soybean (soybean (Glycine max); [14]): 35 | Plant response rating, Corn (corn (Zea mays); [12]): 10 | Corn plant response rating (corn (Zea mays); [22]): 10 | Plant response rating, Corn (corn (Zea mays); [13]): 20 | Plant response rating, Corn (corn (Zea mays); [14]): 25 | Plant response rating, Foxtail, Giant [3, 12]: 5 | Foxtail, Giant plant response rating [3, 22]: 15 | Plant response rating, Foxtail, Giant [3, 13]: 15 | Plant response rating, Foxtail, Giant [3, 14]: 25 | Plant response rating, Barnyardgrass [4, 12]: 25 | Barnyardgrass plant response rating [4, 22]: 30 | Plant response rating, Barnyardgrass [4, 13]: 35 | Plant response rating, Barnyardgrass [4, 14]: 50 | Plant response rating, Wheat [5, 12]: 0 | Wheat plant response rating [5, 22]: 0 | Plant response rating, Wheat [5, 13]: 0 | Plant response rating, Wheat [5, 14]: 5 | Plant response rating, Blackgrass [6, 12]: 5 | Blackgrass plant response rating [6, 22]: 5 | Plant response rating, Blackgrass [6, 13]: 10 | Plant response rating, Blackgrass [6, 14]: 40 | Plant response rating, Johnsongrass [7, 12]: 10 | Johnsongrass plant response rating [7, 22]: 10 | Plant response rating, Johnsongrass [7, 13]: 15 | Plant response rating, Johnsongrass [7, 14]: 25 | Plant response rating, Nutsedge, Yellow [8, 12]: 35 | Nutsedge, Yellow plant response rating [8, 22]: 60 | Plant response rating, Nutsedge, Yellow [8, 13]: 70 | Plant response rating, Nutsedge, Yellow [8, 14]: 85 | Plant response rating, Velvetleaf [9, 12]: 30 | Velvetleaf plant response rating [9, 22]: 85 | Plant response rating, Velvetleaf [9, 13]: 98 | Plant response rating, Velvetleaf [9, 14]: 95 | Plant response rating, Crabgrass, Large [10, 12]: 10 | Crabgrass, Large plant response rating [10, 22]: 20 | Plant response rating, Crabgrass, Large [10, 13]: 30 | Plant response rating, Crabgrass, Large [10, 14]: 30 | Plant response rating, Waterhemp_RES2 [11, 20]: 55 | Plant response rating, Waterhemp_RES2 [11, 21]: 70 | Plant response rating, Waterhemp_RES2 ([11]; 250 g ai/ha, scale 0 to 100 (0 no effect, 100 complete control)): 85
